Here are results for 17 compounds from patent US10047084B2, “Imidazolone derivatives, pharmaceutical compositions and uses thereof” (BEIJING FORELANDPHARMA CO. LTD., priority 2013, dated 2018).

Structures are written as SMILES.

One data set concerns SK-BR3/BT474. Nature of the data set: CTG cell survival assay, SK-BR3/BT474. It counts as cell-based. To be noted: SK-BR3/BT474 cells. Summed up:
(§1)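 Cells were exposed to compounds in a 3-fold dilution series, with a top final concentration of 10 uM in 0.1% DMSO. Viable cells were quantified by CellTiter-Glo ATP luminescence.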

Another data set deals with MV-4-11. As to the kind of experiment: CTG cell survival assay, MV-4-11. The settings on record: Homo sapiens, MV4-11, MV-4-11 cells. It is filed as cell-based. The essentials: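 Cells grown in RPMI 1640 with 10% FBS were plated and cultured 24 h at 37 °C, 5% CO2, then treated with compound diluted from 10 mM DMSO stocks. Viable cells were quantified as ATP by CellTiter-Glo luminescence.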

Another data set relates to PC-3. As to the kind of experiment: CTG cell survival assay, PC-3. It counts as cell-based. The settings on record: Homo sapiens, PC-3 cells. The essentials:
as §1

The next data set addresses mTOR kinase (Homo sapiens (Human), UniProt P42345). Nature of the data set: mTOR kinase activity assay (TR-FRET, GFP-4EBP1 substrate). It counts as biochemical. The settings on record: read-out: Enzyme (mTOR) IC50. Here is the method:
1. mTOR Kinase Activity Assay: The inhibition of the mTOR protein kinase activity by the compounds was determined by the enzymatic activity assay in vitro. The detection kit supplied by Invitrogen was used to detect the inhibition of the activity of the mTOR […]. The principle of the assay was as follows: mTOR kinase, fluorescein-labeled substrate and ATP were mixed, and after the reaction, EDTA and terbium-labeled first antibody were added. During the chemical reaction process of the mTOR kinase, the antibody recognized the phosphorylated and fluorescein-labeled substrate, and then the “time-resolved fluorescence resonance energy transfer” (TR-FRET) effect was enhanced. TR-FRET effect was calculated as the ratio of signals from the acceptor fluorescein to signals from the donor terbium. The amount of the antibody bound to the tracer was directly proportional to the amount of the phosphorylated substrate after the reaction. In this way, the kinase activity can be detected. In this assay, the substrate of the mTOR kinase was green fluorescent protein-coupled 4E binding protein 1 (GFP-4EBP1).
1.1 Materials and Instruments:
4-Hydroxyethylpiperazine ethanesulfonic acid (HEPES, Sigma, Cat# SH3375), ethylene glycol-bis-(2-aminoethylether)-tetraacetic acid (EGTA, Sigma, Cat# E3889), manganese chloride (MnCl2, Sigma, Cat# M1787), Tween-20 (Tween-20, Amresco), 1,4-dithiothreitol (DTT, Merck, CB233155),
In general terms: Time-resolved FRET reads energy transfer from a long-lived donor to a nearby acceptor.

Data set [1] can be described thus: Solubility test in common aqueous vehicles. The settings on record: 25° C., pH = 3. It counts as physicochemical.

Chain of mTOR kinase (P42345 1360-2549): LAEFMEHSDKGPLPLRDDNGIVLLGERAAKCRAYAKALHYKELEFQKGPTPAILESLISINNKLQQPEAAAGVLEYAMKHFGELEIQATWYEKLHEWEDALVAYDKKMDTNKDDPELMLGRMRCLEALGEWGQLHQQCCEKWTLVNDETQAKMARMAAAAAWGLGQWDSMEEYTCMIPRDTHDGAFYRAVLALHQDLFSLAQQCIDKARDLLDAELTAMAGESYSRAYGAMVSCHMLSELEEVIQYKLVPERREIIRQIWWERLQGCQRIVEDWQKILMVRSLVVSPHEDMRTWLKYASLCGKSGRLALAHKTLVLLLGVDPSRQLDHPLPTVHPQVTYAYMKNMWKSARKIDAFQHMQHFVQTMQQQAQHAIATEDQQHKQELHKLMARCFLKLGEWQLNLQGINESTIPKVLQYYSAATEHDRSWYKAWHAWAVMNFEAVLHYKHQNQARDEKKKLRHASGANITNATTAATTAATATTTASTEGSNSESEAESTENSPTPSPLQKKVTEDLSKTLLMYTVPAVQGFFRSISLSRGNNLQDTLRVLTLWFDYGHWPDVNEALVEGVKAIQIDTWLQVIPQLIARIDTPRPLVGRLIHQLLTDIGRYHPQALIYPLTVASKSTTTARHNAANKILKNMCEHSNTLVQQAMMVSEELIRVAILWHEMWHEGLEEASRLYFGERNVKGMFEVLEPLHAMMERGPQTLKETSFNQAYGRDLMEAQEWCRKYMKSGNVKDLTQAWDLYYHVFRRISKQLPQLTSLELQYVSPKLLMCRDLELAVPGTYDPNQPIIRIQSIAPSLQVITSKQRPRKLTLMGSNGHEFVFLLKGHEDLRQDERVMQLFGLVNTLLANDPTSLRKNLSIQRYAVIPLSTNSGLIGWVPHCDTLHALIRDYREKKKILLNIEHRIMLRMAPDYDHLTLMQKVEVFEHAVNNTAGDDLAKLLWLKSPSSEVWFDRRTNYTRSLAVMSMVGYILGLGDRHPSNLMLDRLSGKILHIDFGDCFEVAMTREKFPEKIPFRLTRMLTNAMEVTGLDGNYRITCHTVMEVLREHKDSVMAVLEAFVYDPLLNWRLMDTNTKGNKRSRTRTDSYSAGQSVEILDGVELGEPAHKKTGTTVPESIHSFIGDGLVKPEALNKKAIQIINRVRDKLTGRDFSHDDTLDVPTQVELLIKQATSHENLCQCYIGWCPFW

On to `Cn1cc(-c2ccc(-c3ccc4ncc5c(c4c3)n(C3CCCN(C(=O)CO)C3)c(=O)n5C)cn2)cn1` (stereo not shown) [Example 1, 1-(1-(2-hydroxyacetyl)piperidin-3-yl)-3-methyl-8-(6-(1-methyl-1H-pyrazol-4-yl)pyridin-3-yl)-1H-imidazo[4,5-c]quinolin-2(3H)-one], for which the 50% effective concentration (EC50) (usually the concentration giving half of the maximal effect) in the data set on SK-BR3/BT474 is < 500 nM; in the data set with MV-4-11 it was < 1000 nM; with PC-3, < 200 nM. The half-inhibitory concentration (IC50) (usually the point on the concentration scale where inhibition reaches its midpoint) on mTOR kinase is 10 to 100 nM. In addition, the solubility (commonly how much of the substance goes into solution per volume) in data set [1] (aqueous buffer, water) was > 1000 µg/mL.

In the case of `C[C@H](O)C(=O)N1CCCC(n2c(=O)n(C)c3cnc4ccc(-c5ccc(-c6cnn(C)c6)nc5)cc4c32)C1` (stereo partly drawn) [Example 4, 1-(1-((S)-2-hydroxypropionyl)piperidin-3-yl)-3-methyl-8-(6-(1-methyl-1H-pyrazol-4-yl)pyridin-3-yl)-1H-imidazo[4,5-c]quinolin-2(3H)-one], the 50% effective concentration (EC50) with SK-BR3/BT474 was < 500 nM; with MV-4-11, < 500 nM; in the data set with PC-3 it was < 200 nM. Also, on mTOR kinase, the IC50 fell in the range of 10 to 100 nM.

On to `C[C@@H](O)C(=O)N1CCCC(n2c(=O)n(C)c3cnc4ccc(-c5ccc(-c6cnn(C)c6)nc5)cc4c32)C1` (stereo partly drawn) [Example 5, 1-(1-((R)-2-hydroxypropionyl)piperidin-3-yl)-3-methyl-8-(6-(1-methyl-1H-pyrazol-4-yl)pyridin-3-yl)-1H-imidazo[4,5-c]quinolin-2(3H)-one], for which the EC50 with SK-BR3/BT474 was < 200 nM; in the data set on MV-4-11, < 500 nM; in the data set on PC-3 it was < 500 nM. Further, the concentration for half-maximal inhibition (IC50) at mTOR kinase was < 10 nM.

`Cn1cc(-c2ccc(-c3ccc4ncc5c(c4c3)n(C3CCN(S(C)(=O)=O)C3)c(=O)n5C)cn2)cn1` (stereo not shown) [Example 6, 3-methyl-8-(6-(1-methyl-1H-pyrazol-4-yl)pyridin-3-yl)-1-(1-(methanesulfonyl)pyrrolidin-3-yl)-1H-imidazo[4,5-c]quinolin-2 (3H)-one]: the EC50 was < 50 nM with SK-BR3/BT474, < 200 nM with MV-4-11 and < 50 nM in the data set with PC-3. On mTOR kinase, the IC50 is < 10 nM.

Turning to `CCN1CCC(n2c(=O)n(C)c3cnc4ccc(-c5ccc(-c6cnn(C)c6)nc5)cc4c32)C1` (stereo not shown) [Example 10, 1-(1-ethylpyrrolidin-3-yl)-3-methyl-8-(6-(1-methyl-1H-pyrazol-4-yl)pyridin-3-yl)-1H-imidazo[4,5-c]quinolin-2(3H)-one], the results for the half-maximal effective concentration (EC50) with SK-BR3/BT474, in the data set with MV-4-11 and with PC-3 were < 1000 nM, < 1000 nM and < 200 nM, respectively. Moreover, the IC50 on mTOR kinase is 100 to 1000 nM.

In the case of `Cn1cc(-c2ccc(-c3ccc4ncc5c(c4c3)n([C@H]3CC[C@H](O)CC3)c(=O)n5C)cn2)cn1` [Example 17, 1-((1r,4r)-4-hydroxycyclohexyl)-3-methyl-8-(6-(1-methyl-1H-pyrazol-4-yl)pyridin-3-yl)-1H-imidazo[4,5-c]quinolin-2(3H)-one], the EC50 is < 200 nM in the data set on SK-BR3/BT474, < 500 nM in the data set on MV-4-11 and < 100 nM in the data set on PC-3. In addition, the IC50 at mTOR kinase is < 10 nM.

For `Cn1c(=O)n([C@H]2CC[C@@H](O)CC2)c2c3cc(-c4ccc(-c5ccccc5)nc4)ccc3ncc21` [Example 19, 1-((1s,4s)-4-hydroxycyclohexyl)-3-methyl-8-(6-phenylpyridin-3-yl)-1H-imidazo[4,5-c]quinolin-2(3H)-one], the 50% effective concentration (EC50) was < 100 nM with SK-BR3/BT474, < 200 nM in the data set with MV-4-11 and < 50 nM with PC-3. For the same compound, the IC50 on mTOR kinase was < 10 nM. Further, the solubility in data set [1] (aqueous with cosolvent or surfactant or cyclodextrin, 30% hydroxypropyl-β-cyclodextrin) is > 1000 µg/mL.

On to `COc1ncc(-c2ccc3ncc4c(c3c2)n([C@H]2CC[C@@H](O)CC2)c(=O)n4C)cc1C` [Example 20, 1-((1s,4s)-4-hydroxycyclohexyl)-8-(6-methoxyl-5-methylpyridin-3-yl)-3-methyl-1H-imidazo[4,5-c]quinolin-2(3H)-one], for which the concentration for a half-maximal effect (EC50) is < 500 nM with SK-BR3/BT474, < 200 nM with MV-4-11 and < 200 nM with PC-3. Also, the IC50 at mTOR kinase lay within 10 to 100 nM.

`Cn1c(=O)n([C@H]2CC[C@@H](O)CC2)c2c3cc(-c4cnn(-c5ccccc5)c4)ccc3ncc21` [Example 21, 1-((1s,4s)-4-hydroxycyclohexyl)-3-methyl-8-(1-phenyl-1H-pyrazol-4-yl)-1H-imidazo[4,5-c]quinolin-2(3H)-one]: the EC50 with SK-BR3/BT474 was < 500 nM; in the data set on MV-4-11, < 200 nM; in the data set on PC-3, < 500 nM. Further, at mTOR kinase, the IC50 is 10 to 100 nM.

Regarding `Cc1ccc(-c2ccc3ncc4c(c3c2)n([C@H]2CC[C@@H](O)CC2)c(=O)n4C)cn1` [Example 22, 1-((1s,4s)-4-hydroxycyclohexyl)-3-methyl-8-(6-methylpyridin-3-yl)-1H-imidazo[4,5-c]quinolin-2(3H)-one], the concentration giving a half-maximal response (EC50) with SK-BR3/BT474, with MV-4-11 and in the data set on PC-3 was < 200 nM throughout. The IC50 on mTOR kinase was 10 to 100 nM.

For the compound `Cn1c(=O)n([C@H]2CC[C@H](O)CC2)c2c3cc(-c4cnn(-c5ccccc5)c4)ccc3ncc21` [Example 23, 1-((1r,4r)-4-hydroxycyclohexyl)-3-methyl-8-(1-phenyl-1H-pyrazol-4-yl)-1H-imidazo[4,5-c]quinolin-2(3H)-one], the EC50 in the data set on SK-BR3/BT474 was < 500 nM; with MV-4-11, < 500 nM; with PC-3, < 200 nM. Also, at mTOR kinase, the IC50 lay in the range of 10 to 100 nM.

For `COc1ncc(-c2ccc3ncc4c(c3c2)n([C@H]2CC[C@H](O)CC2)c(=O)n4C)cc1C` [Example 24, 1-((1r,4r)-4-hydroxycyclohexyl)-8-(6-methoxyl-5-methylpyridin-3-yl)-3-methyl-1H-imidazo[4,5-c]quinolin-2(3H)-one], the concentration for a half-maximal effect (EC50) with SK-BR3/BT474 is < 500 nM; with MV-4-11, < 500 nM; in the data set on PC-3, < 200 nM. Besides, on mTOR kinase, the IC50 lay within 10 to 100 nM.

Consider `Cn1c(=O)n([C@H]2CCN(S(C)(=O)=O)C2)c2c3cc(-c4ccc(-c5ccccc5)nc4)ccc3ncc21` [Example 30, (S)-3-methyl-1-(1-(methanesulfonyl)pyrrolidin-3-yl)-8-(6-phenylpyridin-3-yl)-1H-imidazo[4,5-c]quinolin-2(3H)-one], for which the concentration for a half-maximal effect (EC50) in the data set on SK-BR3/BT474 and in the data set on MV-4-11 was < 100 nM throughout. Moreover, the concentration for half-maximal inhibition (IC50) on mTOR kinase is < 10 nM.

Regarding `Cn1cc(-c2ccc(-c3ccc4ncc5c(c4c3)n(C3CCCC(O)C3)c(=O)n5C)cn2)cn1` (stereo not shown) [Example 32, 1-(3-hydroxycyclohexyl)-3-methyl-8-(6-(1-methyl-1H-pyrazol-4-yl)pyridin-3-yl)-1H-imidazo[4,5-c]quinolin-2(3H)-one], the EC50 with SK-BR3/BT474 is < 100 nM; in the data set with MV-4-11 it was < 200 nM; in the data set on PC-3, < 50 nM. Further, the 50% inhibitory concentration (IC50) on mTOR kinase is < 10 nM.

On to `[2H]C([2H])([2H])n1c(=O)n(C2CCCN(S(C)(=O)=O)C2)c2c3cc(-c4ccc(-c5cnn(C)c5)nc4)ccc3ncc21` (stereo not shown) [Example 36, 3-deuteromethyl-8-(6-(1-methyl-1H-pyrazol-4-yl)pyridin-3-yl)-1-(1-(methanesulfonyl)piperidin-3-yl)-1H-imidazo[4,5-c]quinolin-2(3H)-one], for which the figures for the EC50 with SK-BR3/BT474 and in the data set with MV-4-11 were < 500 nM and < 200 nM, respectively. Besides, the 50% inhibitory concentration (IC50) at mTOR kinase is < 10 nM.

For `Cn1cc(-c2ccc(-c3ccc4ncc5c(c4n3)n(C3CCCN(S(C)(=O)=O)C3)c(=O)n5C)cn2)cn1` (stereo not shown) [Example 37, 3-methyl-8-(6-(1-methyl-1H-pyrazol-4-yl)pyridin-3-yl)-1-(1-(methanesulfonyl)piperidin-3-yl)-1H-imidazo[4,5-c][1,5]naphthyridin-2(3H)-one], the EC50 in the data set on SK-BR3/BT474 and in the data set on MV-4-11 was < 50 nM throughout. For the same compound, the IC50 on mTOR kinase is < 10 nM.

Turning to `CCS(=O)(=O)N1CCC[C@@H](n2c(=O)n(C)c3cnc4ccc(-c5ccc(-c6cnn(C)c6)nc5)cc4c32)C1` [Example 52, (R)-1-(1-(ethylsulfonyl)piperidin-3-yl)-3-methyl-8-(6-(1-methyl-1H-pyrazol-4-yl)pyridin-3-yl)-1H-imidazo[4,5-c]quinolin-2(3H)-one], the results for the EC50 in the data set with SK-BR3/BT474, in the data set with MV-4-11 and in the data set with PC-3 were 50 nM, < 30 nM and < 30 nM, respectively. Further, the solubility in data set [1] (aqueous buffer, water) was > 1000 µg/mL.
